Each structure is given as a SMILES string. Bounds are passed on as bounds.

In this assay the target is T1, M3 muscarinic receptor (hM3) (Homo sapiens, UniProt P20309).
T1 construct: expressed in transfected cells; membranes
Kind of assay: Radioligand binding assay for muscarinic receptors (Assay Test Procedure B). The conditions noted are these: radioligand displacement, CHO cell membranes, [3H]-NMS. As to the method: CHO cell lines stably expressing cloned human hM1, hM2, hM3 and hM4 muscarinic receptor subtypes, respectively, were grown to near confluency in HAM's F-12 media supplemented with 10% FBS and 250 μg/mL Geneticin. The cells were grown in a 5% CO2, 37° C. incubator and lifted with 2 mM EDTA in dPBS. Cells were collected by 5 minute centrifugation at 650×g, and cell pellets were either stored frozen at −80° C. or membranes were prepared immediately for use. For membrane preparation, cell pellets were resuspended in lysis buffer and homogenized with a Polytron PT-2100 tissue disrupter (Kinematica AG; 20 seconds×2 bursts). Crude membranes were centrifuged at 40,000×g for 15 minutes at 4° C. […] The protein concentration of the membrane suspension was determined by the method described in Lowry et al., 1951, Journal of Biochemistry, 193, 265. […]
Radioligand binding assays for cloned human muscarinic receptors were performed in 96-well microtiter plates in a total assay volume of 100 μL. […] Filter plates were rinsed three times with wash buffer (10 mM HEPES) to remove unbound radioactivity. […] The plates were then counted in a PerkinElmer Topcount liquid scintillation counter (PerkinElmer Inc., Wellesley, Mass.). Binding data were analyzed by nonlinear regression analysis with the GraphPad Prism Software package (GraphPad Software, Inc., San Diego, Calif.) using the one-site competition model. […]
Background: Displacement assays read how much labelled ligand stays bound in the presence of the test substance.

T1 sequence (P20309 whole entry): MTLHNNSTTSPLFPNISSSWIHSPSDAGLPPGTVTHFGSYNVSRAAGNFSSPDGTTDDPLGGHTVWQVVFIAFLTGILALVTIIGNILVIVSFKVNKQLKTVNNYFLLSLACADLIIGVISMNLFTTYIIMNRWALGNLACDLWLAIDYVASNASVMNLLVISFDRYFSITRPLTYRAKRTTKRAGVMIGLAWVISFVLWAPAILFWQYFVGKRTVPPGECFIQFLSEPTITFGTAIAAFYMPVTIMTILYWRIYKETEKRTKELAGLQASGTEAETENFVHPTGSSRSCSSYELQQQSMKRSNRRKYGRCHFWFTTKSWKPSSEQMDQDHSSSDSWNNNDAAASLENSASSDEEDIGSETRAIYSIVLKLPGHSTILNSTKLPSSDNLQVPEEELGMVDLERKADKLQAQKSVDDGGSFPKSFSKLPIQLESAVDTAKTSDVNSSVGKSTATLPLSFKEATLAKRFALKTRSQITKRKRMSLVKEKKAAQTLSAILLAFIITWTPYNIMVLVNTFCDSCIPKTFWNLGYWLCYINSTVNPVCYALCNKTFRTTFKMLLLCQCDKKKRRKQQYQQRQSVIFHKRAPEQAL

The Ki is the dissociation constant of the complex between target and ligand, obtained from inhibition or displacement. Lower therefore signals tighter binding. In turn, `C[N+]1(CCCCCCCCCNC[C@H](O)c2ccc(O)c3[nH]c(=O)ccc23)C2CC(OC(=O)C(O)(c3cccs3)c3cccs3)CC1C1OC12.C[N+]1(CCCCCCCCCNC[C@H](O)c2ccc(O)c3[nH]c(=O)ccc23)C2CC(OC(=O)C(O)(c3cccs3)c3cccs3)CC1C1OC12.O=C([O-])C(F)(F)F.O=C([O-])C(F)(F)F` (stereo partly drawn) [Example 1, 7-(2-Hydroxy-2,2-dithiophen-2-ylacetoxy)-9-{9-[(R)-2-hydroxy-2-(8-hydroxy-2-oxo-1,2-dihydroquinolin-5-yl)ethylamino]nonyl}-9-methyl-3-oxa-9-azonia-tricyclo[3.3.1.0^2,4]nonane Ditrifluoroacetate] gave a Ki of less than 50 nM.

(Values after patent publication US7893256B2, “Azabicycloalkane compounds” (Theravance, Inc., priority 2003, dated 2011).)
